How the values were obtained:
[1] = target: T1, human Cot catalytic domain (30-397 amino acids) (Homo sapiens, UniProt P41279); assay: High Throughput Cot Biochemical Assay (KinEASE TR-FRET); conditions: Cot biochemical HTRF (KinEASE TR-FRET) assay; read-out: IC50 HTRF
T1 construct: Purified recombinant human Cot catalytic domain (30-397 amino acids) was purchased from Cama Biosciences; purchased Cama Biosciences (so in the source)
Procedure, shortened: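 First, purified human Cot (aa 30-397) at 5 nM phosphorylates an XL665-labeled STK3 peptide (1 μM) at 400 μM ATP, pH 7.0, 0.1% DMSO. Then a europium-conjugated phospho-specific antibody binds the product, giving the TR-FRET signal.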

[2] = test system: TNFα production in LPS-stimulated human monocytes; assay: Cot Monocyte TNFα Cell Based Assay; conditions: Homo sapiens, Monocyte, TNFα in LPS-stimulated human monocytes; read-out: EC50 TNF
Procedure, shortened: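 5,000 cells/well; cmpd 1 h, 37 °C, 0.5% DMSO final; LPS 50 pg/ml, 4 h, 37 °C; media TNFα by HTRF sandwich (cryptate/XL665), RT overnight; % control vs unstimulated/stimulated wells.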

T1 sequence (P41279 30-397): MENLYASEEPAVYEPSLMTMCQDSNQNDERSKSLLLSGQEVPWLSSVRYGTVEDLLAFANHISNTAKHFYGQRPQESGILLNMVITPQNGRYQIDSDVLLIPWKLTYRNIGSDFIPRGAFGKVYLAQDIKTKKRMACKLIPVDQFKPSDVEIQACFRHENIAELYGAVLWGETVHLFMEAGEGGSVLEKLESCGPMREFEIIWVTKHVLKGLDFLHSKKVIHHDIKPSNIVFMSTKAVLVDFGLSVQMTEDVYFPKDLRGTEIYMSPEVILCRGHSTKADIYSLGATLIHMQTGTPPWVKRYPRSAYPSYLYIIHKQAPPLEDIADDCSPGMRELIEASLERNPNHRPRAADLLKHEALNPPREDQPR

Row | Structure (SMILES) | IC50 [1] | EC50 [2]
1 | CN(C)c1cccc([C@H](Nc2cc(Cl)c3ncc(C#N)c(Nc4ccc(F)c(Cl)c4)c3c2)c2cn(C3CCN(C(C)(C)C)CC3)nn2)c1 [Example 595, (S)-6-(((1-(1-(tert-butyl)piperidin-4-yl)-1H-1,2,3-triazol-4-yl)(3-(dimethylamino)phenyl)methyl)amino)-8-chloro-4-((3-chloro-4-fluorophenyl)amino)quinoline-3-carbonitrile] | 8 nM | 305 nM
2 | CC(C)(C)N1CCC(n2cc([C@@H](Nc3cc(Cl)c4ncc(C#N)c(NC5CC6CCC5C6)c4c3)c3ccccc3)nn2)CC1 (stereo partly drawn) [Example 596, 4-(bicyclo[2.2.1]heptan-2-ylamino)-6-(((S)-(1-(1-(tert-butyl)piperidin-4-yl)-1H-1,2,3-triazol-4-yl)(phenyl)methyl)amino)-8-chloroquinoline-3-carbonitrile] | 33 nM | 3050 nM
3 | CC(C)(C)N1CCC(n2cc(C(Nc3cc(Cl)c4ncc(C#N)c(NC5CCC(O)CC5)c4c3)c3ccccc3)nn2)CC1 [Example 597, 6-(((S)-(1-(1-(tert-butyl)piperidin-4-yl)-1H-1,2,3-triazol-4-yl)(phenyl)methyl)amino)-8-chloro-4-(((1r,4S)-4-hydroxycyclohexyl)amino) quinoline-3-carbonitrile] | 189 nM | 3180 nM
4 | CC[C@@H](Nc1c(C#N)cnc2c(Cl)cc(N[C@@H](c3cccc(C(=O)N(C)C)c3)c3c[nH]nn3)cc12)c1ccccc1 [Example 598, 3-((S)-((8-chloro-3-cyano-4-(((R)-1-phenylpropyl)amino)quinolin-6-yl)amino)(1H-1,2,3-triazol-4-yl)methyl)-N,N-dimethylbenzamide] | 4 nM | 418 nM
5 | CC[C@@H](Nc1c(C#N)cnc2c(Cl)cc(N[C@@H](c3cccc(C(=O)N(C)C)c3)c3cn(C(C)C)nn3)cc12)c1ccccc1 [Example 599, 3-((S)-((8-chloro-3-cyano-4-(((R)-1-phenylpropyl)amino)quinolin-6-yl)amino)(1-isopropyl-1H-1,2,3-triazol-4-yl)methyl)-N,N-dimethylbenzamide] | 3 nM | 134 nM
6 | CC[C@@H](Nc1c(C#N)cnc2c(Cl)cc(N[C@@H](c3cccc(C(=O)N(C)C)c3)c3cn(C4CCN(C(C)(C)C)CC4)nn3)cc12)c1ccccc1 [Example 600, 3-((S)-(1-(1-(tert-butyl)piperidin-4-yl)-1H-1,2,3-triazol-4-yl)((8-chloro-3-cyano-4-(((R)-1-phenylpropyl)amino)quinolin-6-yl)amino)methyl)-N,N-dimethylbenzamide] | 2 nM | 78 nM
7 | CC(C)(C)N1CCC(n2cc([C@@H](Nc3cc(Cl)c4ncc(C#N)c(NCC5CCOCC5)c4c3)c3ccccc3)nn2)CC1 [Example 601, (S)-6-(((1-(1-(tert-butyl)piperidin-4-yl)-1H-1,2,3-triazol-4-yl)(phenyl)methyl)amino)-8-chloro-4-(((tetrahydro-2H-pyran-4-yl)methyl)amino)quinoline-3-carbonitrile] | 64 nM | 2060 nM
8 | CC(C)(C)N1CCC(n2cc([C@@H](Nc3cc(Cl)c4ncc(C#N)c(NCC5CCCCC5)c4c3)c3ccccc3)nn2)CC1 [Example 602, (S)-6-(((1-(1-(tert-butyl)piperidin-4-yl)-1H-1,2,3-triazol-4-yl)(phenyl)methyl)amino)-8-chloro-4-chloro-4-((cyclohexylmethyl)amino) quinoline-3-carbonitrile] | 77 nM | 3050 nM
9 | CC(C)(C)N1CCC(n2cc([C@@H](Nc3cc(Cl)c4ncc(C#N)c(NN5CCCCC5)c4c3)c3ccccc3)nn2)CC1 [Example 603, (S)-6-(((1-(1-(tert-butyl)piperidin-4-yl)-1H-1,2,3-triazol-4-yl)(phenyl)methyl)amino)-8-chloro-4-(piperidin-1-ylamino)quinoline-3-carbonitrile] | 61 nM | 561 nM
10 | CC(C)(C)N1CCC(n2cc([C@@H](Nc3cc(Cl)c4ncc(C#N)c(NN5CCCCCC5)c4c3)c3ccccc3)nn2)CC1 [Example 604, (S)-4-(azepan-1-ylamino)-6-(((1-(1-(tert-butyl)piperidin-4-yl)-1H-1,2,3-triazol-4-yl)(phenyl)methyl)amino)-8-chloroquinoline-3-carbonitrile] | 156 nM | 3040 nM
11 | N#Cc1cnc2c(Cl)cc(N[C@@H](c3ccccc3)c3cn(CC(O)C(F)(F)F)nn3)cc2c1Nc1ccc(F)c(Cl)c1 (stereo partly drawn) [Example 605, 8-chloro-4-((3-chloro-4-fluorophenyl)amino)-6-(((1S)-phenyl(1-(3,3,3-trifluoro-2-hydroxypropyl)-1H-1,2,3-triazol-4-yl)methyl)amino)quinoline-3-carbonitrile] | 41 nM | 375 nM
12 | CN(C)C(=O)c1cccc([C@H](Nc2cc(Cl)c3ncc(C#N)c(Nc4cccc(Cl)c4F)c3c2)c2c[nH]nn2)c1 [Example 606, (S)-3-(((8-chloro-4-((3-chloro-2-fluorophenyl)amino)-3-cyanoquinolin-6-yl)amino)(1H-1,2,3-triazol-4-yl)methyl)-N,N-dimethylbenzamide] | 2 nM | 348 nM
13 | CC(C)n1cc([C@@H](Nc2cc(Cl)c3ncc(C#N)c(Nc4cccc(Cl)c4F)c3c2)c2cccc(C(=O)N(C)C)c2)nn1 [Example 607, (S)-3-(((8-chloro-4-((3-chloro-2-fluorophenyl)amino)-3-cyanoquinolin-6-yl)amino)(1-isopropyl-1H-1,2,3-triazol-4-yl)methyl)-N,N-dimethylbenzamide] | 2 nM | 198 nM
14 | CN(C)C(=O)c1cccc([C@H](Nc2cc(Cl)c3ncc(C#N)c(Nc4cccc(Cl)c4F)c3c2)c2cn(C3CCN(C(C)(C)C)CC3)nn2)c1 [Example 608, (S)-3-((1-(1-(tert-butyl)piperidin-4-yl)-1H-1,2,3-triazol-4-yl)((8-chloro-4-((3-chloro-2-fluorophenyl)amino)-3-cyanoquinolin-6-yl)amino)methyl)-N,N-dimethylbenzamide] | 1 nM | 41 nM
15 | N#Cc1cnc2c(Cl)cc(N[C@@H](c3ccccc3)c3cn(C4CC4)nn3)cc2c1Nc1ccc(F)c(Cl)c1 [Example 609, (S)-8-chloro-4-((3-chloro-4-fluorophenyl)amino)-6-(((1-cyclopropyl-1H-1,2,3-triazol-4-yl)(phenyl)methyl)amino) quinoline-3-carbonitrile] | 7 nM | 384 nM
16 | CC(C)(O)Cn1cc([C@@H](Nc2cc(Cl)c3ncc(C#N)c(Nc4ccc(F)c(Cl)c4)c3c2)c2ccccc2)nn1 [Example 610, (S)-8-chloro-4-((3-chloro-4-fluorophenyl)amino)-6-(((1-(2-hydroxy-2-methylpropyl)-1H-1,2,3-triazol-4-yl)(phenyl)methyl)amino) quinoline-3-carbonitrile] | 14 nM | 337 nM
17 | CC(C)(C)N1CCC(n2cc([C@@H](Nc3cc(Cl)c4ncc(C#N)c(Nc5ccsc5Cl)c4c3)c3ccccc3)nn2)CC1 [Example 611, (S)-6-(((1-(1-(tert-butyl)piperidin-4-yl)-1H-1,2,3-triazol-4-yl)(phenyl)methyl)amino)-8-chloro-4-((2-chlorothiophen-3-yl)amino)quinoline-3-carbonitrile] | 51 nM | 369 nM

From US10316017B2, “COT modulators and methods of use thereof” (Gilead Sciences, Inc., priority 2015, dated 2019)
